Assay results as given in patent US20060100140A1, “Combination of a) n-{5-[4-(4-methyl-piperazino-methyl)-benzoylamido]2-methylphenyl}-4- (3-pyridyl)-2-pyrimidine-amine and b) a histone deacetylase inhibitor for the treatment of leukemia” (priority 2002, published 2006).

How the values were obtained:
Type in all cases: cell-based, human
[1] = test system: phospho-JNK; test: Western analysis of phospho-JNK in K562 cells; details: 2.0 μM SAHA ± 250 nM Compound I, 16 hr
Experimental: Immunoblot Analysis: Immunoblotting is performed as described previously (Yu et al., Nat. Rev. Cancer 1:294-202). In brief, after drug treatment cells are pelleted by centrifugation, and lysed immediately in Laemmli buffer [1×=30 mM Tris-base (pH 6.8), 2% SDS, […] β-mercaptoethanol, and 10% glycerol], and briefly sonicated. Homogenates are quantified using Coomassie protein assay reagent (Pierce, Rockford, Ill.). Equal amounts of protein (20 μg) are boiled for 10 min, separated by SDS-PAGE (5% stacker and 10% resolving), and electroblotted to nitrocellulose membrane. After blocking in TBS-T (0.05%) and 5% milk for 1 h at 22° C., the blots are incubated in fresh blocking solution with an appropriate dilution of primary antibody for 4 h at 22° C. […]
K562 cells are treated as above, and monitored for expression of Bcl-xL, Mcl-1, and XIAP. […]

[2] = test system: NB4 promyelocytic leukemia cells; test: Apoptosis by Wright Giemsa-stained cytospin slides; details: NB4: SAHA 1.5 μM; Compound I 250 nM; 24 hr
Experimental: (§1) Experimental Format: Logarithmically growing cells are placed in sterile plastic T-flasks (Corning, Corning, N.Y.) to which are added the designated drugs and the flasks replaced in the incubator for intervals. At the end of the incubation period, cells are transferred to sterile centrifuge tubes, pelleted by centrifugation at 400×g for 10 min at room temperature, and prepared for analysis as described below.
(§2) Assessment of Apoptosis: After drug exposures, cytocentrifuge preparations are stained with Wright-Giemsa and viewed by light microscopy to evaluate the extent of apoptosis (i.e., cell shrinkage, nuclear condensation, formation of apoptotic bodies, etc.) as described previously (Yu et al., Nat. Rev. Cancer 1:294-202). For these studies, the percentage of apoptotic cells is determined by evaluating ≧500 cells/condition in triplicate. To confirm the results of morphological analysis, Annexin V/PI staining is used. Annexin V/PI (BD PharMingen, San Diego, Calif.) analysis of cell death is carried out as per the manufacturer's instructions. In studies involving TNF and TNF soluble receptor, both compound are combined and maintained at room temperature 20 min prior to use. For these experiments 1-2×10^5 cells per condition are harvested. Analysis is carried out using a Becton-Dickinson FACScan cytofluorometer (Mansfield, Mass.). To further confirm the morphology results, TUNEL staining is used. For TUNEL staining, cytocentrifuge preparations are obtained and fixed with 4% formaldehyde. The slides are treated with acetic acid/ethanol (1:2), stained with terminal transferase reaction mixture containing 1× terminal transferase reaction buffer (0.25 units/μl terminal transferase, 2.5 mM CoCl2, and 2 pmol fluorescein-12-dUTM; Boehringer Mannheim, Indianapolis, Ind.), and visualized using fluorescence microscopy.

[3] = test system: U937 monocytic leukemia; test: Apoptosis by Wright Giemsa-stained cytospin slides; details: U937: SAHA 1.5 μM; Compound I 250 nM; 24 hr
Experimental: as §1, §2

[4] = test system: LAMA 84 cells; test: Apoptosis by cytospin slides
Experimental: as §1, §2

[5] = test system: LAMA 84 cells; test: Annexin V/PI flow cytometry of cell death; details: 200 nM Compound I ± 1.0 μM SAHA for 24 hr
Experimental: as §2, with “For” for “Assessment of Apoptosis: After drug exposures, cytocentrifuge preparations are stained with Wright-Giemsa and viewed by light microscopy to evaluate the extent of apoptosis (i.e., cell shrinkage, nuclear condensation, formation of apoptotic bodies, etc.) as described previously (Yu et al., Nat. Rev. Cancer 1:294-202). For”

[6] = test system: K562 cells; test: Clonogenic survival in soft agar; details: 2.0 μM SAHA ± 250 nM Compound I for 24 hr, washed, 12-day incubation
Experimental: Analysis of erythroid maturation of K562 cells is performed by monitoring the production of hemoglobin as previously described (Yang et al., J. Biol. Chem. 2001, 276:25742-52). Clonogenic Survival: Effects of drug treatment on the clonogenic survival of leukemia cells is determined using a previously described clonogenic assay (Yu et al., Mol. Pharmacol. 2001, 60: 143-54).

SMILES	expression of phospho-JNK (JNK activation) [1]	% of apoptotic cells [2] [%]	% of apoptotic cells [3] [%]	Compound I + SB % of apoptotic cells ([4]; Table 6, LAMA 84, 24 hr, sodium butyrate (SB; 1 or 2 mM), Compound I concentration not given) [%]	cell death ([4]; sensitive LAMA 84, Compound I (1.0 or 1.25 μM) for 48 hr, data not shown) [%]	% Annexin V/PI [5] [%]	Clonogenic survival (% control) [6] [% control]
Cc1ccc(NC(=O)c2ccc(CN3CCN(C)CC3)cc2)cc1Nc1nccc(-c2cccnc2)n1 [Compound I, N-{5-[4-(4-methyl-piperazino-methyl)-benzoylamido]-2-methylphenyl}-4-(3-pyridyl)-2-pyrimidine-amine]	fail to modify	1.8 ± 1.3	0.9 ± 08	9.3 ± 3.8	~100	–	–
O=C(CCCCCCC(=O)Nc1ccccc1)NO [SAHA, suberoylanilide hydroxamic acid]	fail to modify	5.6 ± 2.3	5.4 ± 1.9	–	–	15.2 ± 2.4	21.8 ± 3.6
